Data: ChEMBL document CHEMBL1152056, “Targeting radiosensitizers to DNA by minor groove binding: nitroarenes based on netropsin and distamycin” (1993)

Experiments:
Nucleic Acid = experiment: Concentration required for 50% decrease in fluorescence of ethidium bromide bound to calf thymus DNA. at 600 nm; assay type: nucleic-acid assay; details: Bos taurus
[1] = Concentration required to kill 50 % of the cells after ca. 7 days aerobic exposure.; assay type: functional, Cricetulus griseus
[2] = Enhancement ratio was calculated to determine the radiosensitization as the ratio of radiation dose required to kill similar cells in anoxia to those with the compound; at a concentration of 0.05 mM; assay type: functional, Cricetulus griseus
[3] = Enhancement ratio was calculated to determine the radiosensitization as the ratio of radiation dose required to kill similar cells in anoxia to those with the compound; at a concentration of 0.5 mM; assay type: functional, Cricetulus griseus
[4] = Cellular uptake was calculated as the ratio of intracellular and extracellular concentration in V79 hamster cells.; assay type: functional, Cricetulus griseus
[5] = Concentration required to kill 50 % of the cells after ca. 7 days exposure.; assay type: functional, Cricetulus griseus
[6] = Enhancement ratio was calculated to determine the radiosensitization as the ratio of radiation dose required to kill similar cells in anoxia to those with the compound; at a concentration of ~5 mM; assay type: functional, Cricetulus griseus
[7] = Concentration required to kill 50 % of the cells after ca. 7 days aerobic exposure; value ranges from 0.025-0.05; assay type: functional, Cricetulus griseus
[8] = Enhancement ratio was calculated to determine the radiosensitization as the ratio of radiation dose required to kill similar cells in anoxia to those with the compound; at a concentration of 1.0 mM; assay type: functional, Cricetulus griseus

Row | Compound | C50 (Nucleic Acid) [µM] | C50 [1] [mM] | Ratio [3] | Ratio (Ci/Ce) [4] | further results
1 | NC(=O)N/N=C/c1ccc([N+](=O)[O-])o1 [NITROFURAZONE] | > 1000 | 0.13 |  |  | Ratio [2]: 1.6
2 | Cl.Cn1cc(NC(=O)c2cc(NC(=O)Cn3ccnc3[N+](=O)[O-])cn2C)cc1C(=O)NCCC(=N)N | 16 | >0.25 | 1.04 | 3.6 | 
3 | Cl.Cn1cc(NC(=O)c2cc(NC(=O)c3ccc([N+](=O)[O-])o3)cn2C)cc1C(=O)NCCC(=N)N | 4.8 |  | 1.16 | 9.4 | C50 [5]: <0.01 mM
4 | Cl.Cn1cc(NC(=O)Cn2ccnc2[N+](=O)[O-])cc1C(=O)NCCC(=N)N | 6.8 | >0.25 | 1.04 |  | 
5 | COCC(O)Cn1ccnc1[N+](=O)[O-] (stereo not drawn) [MISONIDAZOLE] | 2700 | 1.3 |  | 0.7 | 
6 | Cn1cc(NC(=O)c2cc(NC(=O)CNC(=N)N)cn2C)cc1C(=O)NCCC(=N)N | 1.1 |  |  |  | 
7 | Cc1ncc([N+](=O)[O-])n1CCO [METRONIDAZOLE] | 3200 | 6.5 |  |  | Ratio [6]: 1.6
8 | Cn1cc(NC(=O)c2cc(NC(=O)c3cc(NC=O)cn3C)cn2C)cc1C(=O)NCCC(=N)N | 1.3 |  |  |  | 
9 | Cl.Cn1cc(NC(=O)c2ccc([N+](=O)[O-])o2)cc1C(=O)NCCC(=N)N | 26 |  |  |  | Ratio [2]: 1.3; C50 [7]: 0.025 mM
10 | O=C(Cn1ccnc1[N+](=O)[O-])NCCO [ETANIDAZOLE] | 3000 |  |  | 0.4 | Ratio [8]: 1.55
